In PubChem BioAssay AID1919017 (Molecular Pharmacology Branch, DTP, NCI, 2023):

Test system: SW1271 complex spheroids with HUVEC/MSC, growth, % test/control
Assay: Anticancer human tumor SW1271 cell line growth inhibition [AhR];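 also: spheroids exposed to agents for 7 days before readout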
Settings: for IC50: curve of first compound; for viability, T/C: stronger effect = lower value; active = viability on the fitted dose curve at most 10% of control; inactive = the rest
Text: Multicellular complex tumor spheroid response to aryl hydrocarbon receptor antagonists in combination with a variety of drugs and investigational agents in selected tumor cell lines
The current study was undertaken to assess response to aryl hydrocarbon receptor antagonists in combination with standard-of-care drugs and investigational agents in solid tumor complex spheroid models. Complex spheroids include a stromal component modeled by human endothelial cells (HUVEC) and fibroblasts modeled by human mesenchymal stem cells (MSCs). The concentration ranges selected for each drug and investigational agent were based upon clinically achievable concentrations if the clinical Cmax of the agent was known.
Compounds. The drugs and investigational agents: BAY 2416964 (NSC825713), GNF351 (NSC835774), CH-223191 (NSC835775), CPI-455 (NSC825282), aza-TdCyd (NSC777586), decitabine (NSC127716), belinostat (NSC758774), entinostat (NSC756642), pevonedistat (NSC761192), tazemetostat (NSC777109), talazoparib (NSC765396), olaparib (NSC753686), selinexor (NSC780203), nedisertib (M3814, NSC802822), bortezomib (NSC756655), venetoclax (NSC766270), doxorubicin (NSC123127), elimusertib (BAY189344, NSC800525), ceralasertib (AZD6738, NSC777638), TAK-243 (NSC785004), alisertib (NSC759677), etoposide (NSC141540), topotecan (NSC609699), eribulin (NSC707389), gemcitabine (NSC613327), carboplatin (NSC241240), cisplatin (NSC119875), and SN-38 (NSC673596) were obtained from the National Cancer Institute (NCI) Developmental Therapeutics Program Chemical Repository (32). The FDA-approved anticancer drug set is available from the Developmental Therapeutics Program at https://dtp.cancer.gov/organization/dscb/obtaining/available plates.htm. […] The stock solutions were prepared in dimethyl sulfoxide (DMSO, Sigma-Aldrich, St. Louis, MO, cat. D2650), except for the platinum compounds which were prepared in saline (Quality Biological, Gaithersburg, MD, cat. 114-055-101), at 800-fold the tested concentration and stored at -70 degrees C prior to their use. All drugs and investigational agents were tested over a range starting from a high concentration at or near the clinical Cmax and decreasing in half-log increments. If the clinical Cmax for an agent had not been determined, the highest concentration tested was 10 microM (Table 1).
Cell Culture. All cells were maintained in an incubator at 37 degrees C and 5% CO2 with 95% humidity. The PDC lines were cultured according to standard operating procedures established by the NCI PDMR (https://pdmr.cancer.gov). Briefly, all PDCs were thawed and cultured in Matrigel-coated flasks prepared with a working solution of 1X Ham's F-12 nutrient mix, without supplementation (Invitrogen, Waltham, MA, cat. 11765054), 100 U/mL penicillin-streptomycin (Invitrogen, cat. 15140122), and 2.5% Matrigel (Corning Inc., Corning, NY, cat. 354248) for the first three passages. All PDCs were cultured in complete DMEM/F-12 media containing advanced DMEM/F-12 (Invitrogen, cat. 12634028), 4.9% defined fetal bovine serum, heat inactivated (HyClone Laboratories Inc., Logan, UT, cat. SH30070.03HI), 389 ng/mL hydrocortisone (Sigma-Aldrich, cat. H4001), 9.7 ng/mL human EGF recombinant protein (Invitrogen, cat. PHG0313), 23.4 microg/mL adenine (Sigma-Aldrich, cat. A2786), 97.3 U/mL penicillin-streptomycin (Invitrogen, cat. 15140122), 1.9 mM L-glutamine (Invitrogen, cat. 25030081), and 9.7 microM Y-27632 dihydrochloride (Tocris Bioscience, Bristol, United Kingdom, cat. 1254). The PDCs were cultured in complete DMEM/F12 media without 10 microM Y-27632 dihydrochloride for at least two passages prior to the screen. The established cell lines NCI-H1341 and […] were cultured in DMEM/F-12, HEPES (Invitrogen, cat. 11330032), 5% defined fetal bovine serum (HyClone Laboratories Inc., cat. SH30070.03), ITS premix universal culture supplement [insulin (5 microg/mL), transferrin (5 microg/mL), and selenious acid (5 ng/mL)] […]

CC(C)CC(NC(=O)C(Cc1ccccc1)NC(=O)c1cnccn1)B(O)O (stereo not given) + CC(CO)NC(=O)c1cc(-c2ccc(Cl)cc2)nn(-c2cnn(C)c2)c1=O
4.77 nM: IC50 (second compound 3.16 µM)
4.41 nM: IC50 (second compound 10 µM)
5.33 nM: IC50 (second compound 1 µM)
active: viability, T/C (second compound 0.1 µM, first compound 0.00949 µM) 2.31% | viability, T/C (second compound 0.1 µM, first compound 0.03 µM) 0.27% | viability, T/C (second compound 0.1 µM, first compound 0.0949 µM) 0.34% | viability, T/C (second compound 0.1 µM, first compound 0.3 µM) 0.41% | viability, T/C (second compound 0.316 µM, first compound 0.00949 µM) 4.62% | viability, T/C (second compound 0.316 µM, first compound 0.03 µM) 0.41% | viability, T/C (second compound 0.316 µM, first compound 0.0949 µM) 0.43% | viability, T/C (second compound 0.316 µM, first compound 0.3 µM) 0.4% | viability, T/C (second compound 1 µM, first compound 0.00949 µM) 2.34% | viability, T/C (second compound 1 µM, first compound 0.03 µM) 0.34% | viability, T/C (second compound 1 µM, first compound 0.0949 µM) 0.31% | viability, T/C (second compound 1 µM, first compound 0.3 µM) 0.55% | viability, T/C (second compound 3.16 µM, first compound 0.00949 µM) 3.1% | viability, T/C (second compound 3.16 µM, first compound 0.03 µM) 0.44% | viability, T/C (second compound 3.16 µM, first compound 0.0949 µM) 0.3% | viability, T/C (second compound 3.16 µM, first compound 0.3 µM) 0.38% | viability, T/C (second compound 10 µM, first compound 0.00949 µM) 1.45% | viability, T/C (second compound 10 µM, first compound 0.03 µM) 0.5% | viability, T/C (second compound 10 µM, first compound 0.0949 µM) 0.51% | viability, T/C (second compound 10 µM, first compound 0.3 µM) 0.39%
5.08 nM: IC50 (second compound 0.316 µM)
inactive: viability, T/C (second compound 0.1 µM, first compound 0.000949 µM) 116% | viability, T/C (second compound 0.1 µM, first compound 0.003 µM) 86.6% | viability, T/C (second compound 0.316 µM, first compound 0.000949 µM) 92.5% | viability, T/C (second compound 0.316 µM, first compound 0.003 µM) 88.3% | viability, T/C (second compound 1 µM, first compound 0.000949 µM) 99.9% | viability, T/C (second compound 1 µM, first compound 0.003 µM) 97.5% | viability, T/C (second compound 3.16 µM, first compound 0.000949 µM) 66.9% | viability, T/C (second compound 3.16 µM, first compound 0.003 µM) 96.6% | viability, T/C (second compound 10 µM, first compound 0.000949 µM) 73.6% | viability, T/C (second compound 10 µM, first compound 0.003 µM) 75.2%
4.95 nM: IC50 (second compound 0.1 µM)
